Data taken from the supplement of paper PMC11451515.

Test system: P12-Ichikawa
Assay: cell viability relative to DMSO control; higher = less cytotoxic
Conditions: 48 h
In short: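 Viability, reported as a per-plate percentage of DMSO wells with cell-free wells as background, came from CellTiter-Glo One luminescence. Reading took place after 48 h at 37°C. Before that, NOMO1 or SEM (500 cells/well) or P12-Ichikawa (1000 cells/well) leukemia cells, adapted for at least four passages in each medium, were seeded in 1536-well plates (5 μl) and pin-dosed with library compounds in DMSO, 47 μM to 0.79 nM over 11 threefold points.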

[1] = HPLM + 10% dialyzed FBS, 0.000781 µM
[2] = HPLM + 10% dialyzed FBS, 0.00234 µM
[3] = HPLM + 10% dialyzed FBS, 0.00702 µM
[4] = HPLM + 10% dialyzed FBS, 0.0211 µM
[5] = HPLM + 10% dialyzed FBS, 0.0632 µM
[6] = HPLM + 10% dialyzed FBS, 0.19 µM
[7] = HPLM + 10% dialyzed FBS, 0.569 µM
[8] = HPLM + 10% dialyzed FBS, 1.71 µM
[9] = HPLM + 10% dialyzed FBS, 5.12 µM
[10] = HPLM + 10% dialyzed FBS, 15.4 µM
[11] = HPLM + 10% dialyzed FBS, 46.1 µM
[12] = RPMI 5 mM glucose + 10% FBS, 0.000781 µM
[13] = RPMI 5 mM glucose + 10% FBS, 0.00234 µM
[14] = RPMI 5 mM glucose + 10% FBS, 0.00702 µM
[15] = RPMI 5 mM glucose + 10% FBS, 0.0211 µM
[16] = RPMI 5 mM glucose + 10% FBS, 0.0632 µM
[17] = RPMI 5 mM glucose + 10% FBS, 0.19 µM
[18] = RPMI 5 mM glucose + 10% FBS, 0.569 µM
[19] = RPMI 5 mM glucose + 10% FBS, 1.71 µM
[20] = RPMI 5 mM glucose + 10% FBS, 5.12 µM
[21] = RPMI 5 mM glucose + 10% FBS, 15.4 µM
[22] = RPMI 5 mM glucose + 10% FBS, 46.1 µM
[23] = RPMI 5 mM glucose + 10% dialyzed FBS, 0.000781 µM
[24] = RPMI 5 mM glucose + 10% dialyzed FBS, 0.00234 µM
[25] = RPMI 5 mM glucose + 10% dialyzed FBS, 0.00702 µM
[26] = RPMI 5 mM glucose + 10% dialyzed FBS, 0.0211 µM
[27] = RPMI 5 mM glucose + 10% dialyzed FBS, 0.0632 µM
[28] = RPMI 5 mM glucose + 10% dialyzed FBS, 0.19 µM
[29] = RPMI 5 mM glucose + 10% dialyzed FBS, 0.569 µM
[30] = RPMI 5 mM glucose + 10% dialyzed FBS, 1.71 µM
[31] = RPMI 5 mM glucose + 10% dialyzed FBS, 5.12 µM
[32] = RPMI 5 mM glucose + 10% dialyzed FBS, 15.4 µM
[33] = RPMI 5 mM glucose + 10% dialyzed FBS, 46.1 µM

SMILES	cell viability [1] [%]	cell viability [2] [%]	cell viability [3] [%]	cell viability [4] [%]	cell viability [5] [%]	cell viability [6] [%]	cell viability [7] [%]	cell viability [8] [%]	cell viability [9] [%]	cell viability [10] [%]	cell viability [11] [%]	cell viability [12] [%]	cell viability [13] [%]	cell viability [14] [%]	cell viability [15] [%]	cell viability [16] [%]	cell viability [17] [%]	cell viability [18] [%]	cell viability [19] [%]	cell viability [20] [%]	cell viability [21] [%]	cell viability [22] [%]	cell viability [23] [%]	cell viability [24] [%]	cell viability [25] [%]	cell viability [26] [%]	cell viability [27] [%]	cell viability [28] [%]	cell viability [29] [%]	cell viability [30] [%]	cell viability [31] [%]	cell viability [32] [%]	cell viability [33] [%]
C[C@]12CCC(=O)C=C1CC[C@@H]1[C@@H]2[C@@H](O)C[C@@]2(C)[C@H]1CC[C@]2(O)C(=O)CO	107	106	105	107	111	111	115	94.1	89.7	88.9	84.4	104	103	103	115	113	109	104	83.2	78.4	70.9	69.2	104	115	107	119	112	114	100	78.5	78.3	65.4	64.2
O=C(O)Cn1nnc(-c2cc(N3CCC(Oc4cc(F)ccc4Br)CC3)no2)n1	97.6	114	107	114	116	123	105	112	113	12	11	103	112	109	118	118	122	112	118	112	18	13.4	93.2	117	111	115	118	116	113	116	114	45.6	17.9
CC[C@]12CC[C@H]3[C@@H](CCC/4=C/C(=O)CC[C@H]34)[C@@H]1\C=C/[C@@]2(O)C#C	109	124	124	125	132	129	128	120	122	123	119												106	110	121	115	119	114	124	123	118	113	116
COc1ccc([S+](=O)([O-])N(C(C)=O)c2ccccc2/C=C/c2cc[n+]([O-])cc2)cc1	119	125	118	121	125	118	116	64.9	24.5	25.1	10.5																						
CN1CCN(C2=Nc3cc(Cl)ccc3Nc3ccccc32)CC1	102	105	108	108	91.6	115	116	116	106	104	94.4	91.6	120	115	120	95.8	125	107	115	124	108	108	100	103	103	102	96.7	112	109	116	105	108	93.2
CCC[S+]([O-])c1ccc2[nH]c(NC(=O)OC)nc2c1 (stereo not given)	98.5	101	95.7	96.5	101	92.7	102	91.3	89.5	25.3	22.6	84.2	89.9	89	89.2	89.7	93.9	99.8	85.7	82	51.1	27	92.9	98.8	87.7	91.2	95.7	87	86.3	84.3	90	63	34.7
CNCC(O)c1ccc(O)cc1 (stereo not given)	103	106	113	113	124	122	118	118	120	119	120	99.8	116	114	121	124	127	122	129	123	131	107	99.4	110	115	119	114	113	118	113	123	121	114
CN[C@@H](C)[C@H]1[C@H](O)C[C@@]2(C)[C@@H]3CC[C@H]4C(C)(C)[C@@H](NC)CC[C@@]45C[C@@]35CC[C@]12C	92.3	97.3	84.8	98.4	96.5	100	98.8	102	103	97	96.3	95.4	89	81.6	94.4	103	98.8	89.3	105	81.9	105	91.9	85	91	83.8	90.1	93.2	98.8	89.3	92.6	81.7	93.8	79.4
Cc1onc(-c2ccccc2Cl)c1C(=O)N[C@@H]1C(=O)N2[C@@H]1SC(C)(C)[C@@H]2C(=O)[O-]	112	116	113	116	113	113	113	111	110	105	106	119	117	113	111	116	114	116	110	117	101	101	103	111	115	119	126	109	120	105	112	98.4	98.1
CC(C)(C)NC(=O)Nc1cccc(Nc2ncc(F)c(NC(C)(C)CO)n2)c1	105	110	112	114	118	121	117	120	108	14.7	24.4	114	118	124	121	129	121	122	132	116	35.2	40.4	120	117	120	116	124	119	117	119	114	34.6	51
Clc1ccc(-c2nc3sccn3c2/C=N/OCc2ccc(Cl)c(Cl)c2)cc1	114	109	107	112	108	103	104	106	101	99.9	98	111	113	118	102	113	108	110	110	98.5	96.5	98.9	114	110	101	110	110	100	102	101	91.3	101	102
CCOC(=O)[C@@H](N)Cc1ccc(-c2cc(O[C@H](c3ccc(Cl)cc3-n3ccc(C)n3)C(F)(F)F)nc(N)n2)cc1.O=C(O)CNC(=O)c1ccccc1	107	110	103	112	106	110	109	111	109	103	70.2	117	112	107	122	114	121	120	122	107	96.2	56.3	109	113	107	107	102	113	110	108	107	103	44.1
C[C@@]12C(=O)OC(=O)[C@@]1(C)C1CCC2O1	106	103	106	112	111	108	109	92.2	90	13.2	12.4	110	102	102	109	106	98.9	103	102	92.3	8.07	6.24	104	111	109	104	105	109	105	97.5	93.3	10.6	7.9
Cn1cnc2c(F)c(Nc3ccc(Br)cc3F)c(C(=O)NOCCO)cc21	88.4	101	96.6	11.1	102	91.9	91	85.7	87.2	86.3	81.2	84.5	92.6	96.7	13.6	92.3	82.7	80.1	78.2	75.5	74.2	73.1	91	98	101	26.2	97	93.5	83.8	89.1	91.8	86.6	81.4
OC[C@@H](O)[C@@H](O)[C@H](O)[C@@H](O)CO	106	110	107	108	127	127	112	112	124	114	122	116	115	122	123	136	126	132	141	130	135	139	109	109	120	109	123	123	117	120	126	118	127
CNC(=O)c1ccc2cc(C3(O)CCn4cncc43)ccc2c1 (stereo not given)	123	127	115	115	119	123	102	102	108	108	114	123	127	119	127	131	125	129	122	111	133	110	126	117	121	125	118	120	110	117	107	118	105
